Among the data in ChEMBL document CHEMBL2331282, “9-[2-(R)-(Phosphonomethoxy)propyl]-2,6-diaminopurine (R)-PMPDAP and its prodrugs: optimized preparation, including identification of by-products formed, and antiviral evaluation in vitro” (Bioorg Med Chem, 2013) are EC50 values, retold here.

Some results are limits rather than exact numbers.

The assay concerns Vaccinia virus. In words: Antiviral activity against Vaccinia virus infected in human HEL cells assessed as reduction of virus-induced cytopathogenicity. In kind it is functional, organism-based. Conditions: Orthopoxvirus vaccinia. (Cytopathic effects are the visible damage that an infection or toxin causes in cultured cells.)
As a reminder, the EC50 is the concentration giving half of the maximal effect. With `C[C@@H](O)CNc1nc(N)c2ncn(C[C@@H](C)O)c2n1`, the EC50 is above 100 µg/mL. Turning to `C[C@@H](O)CNc1nc(N)nc2c1ncn2C[C@@H](C)O`, the EC50 is above 100 µg/mL. The same measure for `C[C@H](Cn1cnc2c(NCP(=O)(O)O)nc(N)nc21)OCP(=O)(O)O`: above 100 µg/mL.
